According to patent US4055715A, “Method of producing 1-N-[L-(-)-α-hydroxy-γ-aminobutyryl]XK-62-2” (Abbott Laboratories, priority 1974, dated 1977):
In brackets after ≈: the same amount, converted by molar mass.

Experiments:
[1] = test system: Bacillus subtilis ATCC 6633; test: Agar dilution MIC, pH 7.2 (Table 2); type: cell-based; details: ATCC6633, B. subtilis ATCC 6633, agar dilution, pH 7.2, read-out: Minimum Inhibitory Concentration
[2] = test system: Staphylococcus aureus ATCC 6538P; test: Agar-dilution MIC, pH 8.0 (Table 1); type: cell-based; details: ATCC6538P, S. aureus ATCC 6538P, agar-dilution, pH 8.0, read-out: Minimum Inhibitory Concentration
[3] = test system: Proteus mirabilis 1287; test: Agar dilution MIC, pH 7.2 (Table 2); type: cell-based; details: Proteus mirabilis; P. mirabilis 1287; agar dilution, pH 7.2; read-out: Minimum Inhibitory Concentration
[4] = test system: Sarcina lutea ATCC 9341; test: Agar dilution MIC, pH 7.2 (Table 2); type: cell-based; details: Micrococcus luteus, ATCC9341; Sarcina lutea ATCC 9341; agar dilution, pH 7.2; read-out: Minimum Inhibitory Concentration
[5] = test system: Escherichia coli ATCC 26; test: Agar-dilution MIC, pH 8.0 (Table 1); type: cell-based; details: ATCC26, E. coli ATCC 26, agar-dilution, pH 8.0, read-out: Minimum Inhibitory Concentration
[6] = test system: Krebsiella pneumoniae ATCC 10031; test: Agar-dilution MIC, pH 8.0 (Table 1); type: cell-based; details: Klebsiella pneumoniae, ATCC10031; K. pneumoniae ATCC 10031; agar-dilution, pH 8.0; read-out: Minimum Inhibitory Concentration
[7] = test system: Proteus vulgaris 6897; test: Agar dilution MIC, pH 7.2 (Table 2); type: cell-based; details: Proteus vulgaris; P. vulgaris 6897; agar dilution, pH 7.2; read-out: Minimum Inhibitory Concentration
[8] = test system: Salmonella typhosa ATCC 9992; test: Agar-dilution MIC, pH 8.0 (Table 1); type: cell-based; details: Salmonella enterica, pH 8, read-out: Minimum Inhibitory Concentration
[9] = test system: Pseudomonas aeruginosa KY 8516; test: Agar dilution MIC, pH 7.2 (Table 2); type: cell-based; details: KY8516, P. aeruginosa KY 8516, probably produces kanamycin acetyltransferase, agar dilution, pH 7.2, read-out: Minimum Inhibitory Concentration
[10] = test system: Klebsiella pneumoniae No. 8045; test: Agar dilution MIC, pH 7.2 (Table 2); type: cell-based; details: K. pneumoniae No. 8045, agar dilution, pH 7.2, read-out: Minimum Inhibitory Concentration
[11] = test system: Pseudomonas aeruginosa BMH 1; test: Agar dilution MIC, pH 7.2 (Table 2); type: cell-based; details: BMH1, P. aeruginosa BMH 1, agar dilution, pH 7.2, read-out: Minimum Inhibitory Concentration
[12] = test system: Pseudomonas aeruginosa BMH 1; test: Agar-dilution MIC, pH 8.0 (Table 1); type: cell-based; details: BMH1, P. aeruginosa BMH 1, agar-dilution, pH 8.0, read-out: Minimum Inhibitory Concentration
[13] = test system: Pseudomonas aeruginosa KY 8511; test: Agar dilution MIC, pH 7.2 (Table 2); type: cell-based; details: KY8511, P. aeruginosa KY 8511, produces gentamicin acetyltransferase Type I and neomycin-kanamycin phosphotransferase Type I, agar dilution, pH 7.2, read-out: Minimum Inhibitory Concentration
[14] = test system: Pseudomonas aeruginosa KY 8510; test: Agar dilution MIC, pH 7.2 (Table 2); type: cell-based; details: KY8510, P. aeruginosa KY 8510, produces kanamycin acetyltransferase, agar dilution, pH 7.2, read-out: Minimum Inhibitory Concentration
[15] = test system: Escherichia coli KY 8348; test: Agar dilution MIC, pH 7.2 (Table 2); type: cell-based; details: KY8348, E. coli KY 8348, produces gentamicin acetyltransferase Type I, read-out: Minimum Inhibitory Concentration
[16] = test system: Staphylococcus aureus 209 P; test: Agar dilution MIC, pH 7.2 (Table 2); type: cell-based; details: S. aureus 209 P, agar dilution, pH 7.2, read-out: Minimum Inhibitory Concentration
[17] = test system: Escherichia coli KY 8349; test: Agar dilution MIC, pH 7.2 (Table 2); type: cell-based; details: KY8349, E. coli KY 8349, produces neomycin-kanamycin phosphotransferase Type I, read-out: Minimum Inhibitory Concentration
[18] = test system: Escherichia coli KY 8327; test: Agar dilution MIC, pH 7.2 (Table 2); type: cell-based; details: KY8327, E. coli KY 8327, read-out: Minimum Inhibitory Concentration
[19] = test system: strains of the aforementioned resistant bacteria; test: Protection tests against infections induced by resistant bacteria; type: in vivo
[20] = test system: Providencia sp. 164; test: Agar dilution MIC, pH 7.2 (Table 2); type: cell-based; details: Providencia sp. 164, produces gentamicin acetyltransferase Type II, read-out: Minimum Inhibitory Concentration
[21] = test system: Bacillus subtilis No. 10707; test: Agar-dilution MIC, pH 8.0 (Table 1); type: cell-based; details: B. subtilis No. 10707, agar-dilution, pH 8.0, read-out: Minimum Inhibitory Concentration
[22] = test system: Escherichia coli T-5; test: Agar dilution MIC, pH 7.2 (Table 2); type: cell-based; details: T5, E. coli T-5, agar dilution, pH 7.2, read-out: Minimum Inhibitory Concentration
[23] = test system: Proteus vulgaris ATCC 6897; test: microbe, parasite or virus in culture; type: cell-based; details: ATCC6897, P. vulgaris ATCC 6897, agar-dilution, pH 8.0, read-out: Minimum Inhibitory Concentration
[24] = test system: Escherichia coli T-2; test: Agar dilution MIC, pH 7.2 (Table 2); type: cell-based; details: T2, E. coli T-2, agar dilution, pH 7.2, read-out: Minimum Inhibitory Concentration
[25] = Acute toxicity in mice, intravenous injection; details: mouse, in vivo
[26] = test system: Escherichia coli KY 8327; test: Agar-dilution MIC, pH 8.0 (Table 1); type: cell-based; details: for MIC: Escherichia coli, KY8327, E. coli KY 8327, produces gentamicin adenyltransferase, agar-dilution, pH 8.0, read-out: Minimum Inhibitory Concentration
Text: (§1) The former bacterium inactivates kanamycins and gentamicins by adenylation, and the latter inactivates gentamicins by acetylation.

[27] = test system: Escherichia coli KY 8348; test: Agar-dilution MIC, pH 8.0 (Table 1); type: cell-based; details: for MIC: Escherichia coli, KY8348, E. coli KY 8348, produces gentamicin acetyltransferase Type I, agar-dilution, pH 8.0, read-out: Minimum Inhibitory Concentration
Text: as §1

[28] = test system: Escherichia coli having R factors; test: Antibacterial activity against R factor strains; type: cell-based; details: E. coli having R factors, resistant to known aminoglycoside antibiotics
[29] = test system: Staphylococcus aureus Smith; test: Agar dilution MIC, pH 7.2 (Table 2); type: cell-based; details: S. aureus Smith, agar dilution, pH 7.2, read-out: Minimum Inhibitory Concentration
[30] = test system: Escherichia coli KY 8321; test: Agar dilution MIC, pH 7.2 (Table 2); type: cell-based; details: KY8321, E. coli KY 8321, produces gentamicin adenyltransferase and neomycin-kanamycin phosphotransferase Type II, agar dilution, pH 7.2, read-out: Minimum Inhibitory Concentration
[31] = test system: Shigella sonnei ATCC 9290; test: microbe, parasite or virus in culture; type: cell-based; details: ATCC9290, S. sonnei ATCC 9290, agar-dilution, pH 8.0, read-out: Minimum Inhibitory Concentration
[32] = test system: Proteus rettgeri KY 4288; test: Agar dilution MIC, pH 7.2 (Table 2); type: cell-based; details: Providencia rettgeri, KY4288, P. rettgeri KY 4288, read-out: Minimum Inhibitory Concentration
[33] = test system: Pseudomonas aeruginosa KY 8512; test: Agar dilution MIC, pH 7.2 (Table 2); type: cell-based; details: KY8512, P. aeruginosa KY 8512, produces neomycin-kanamycin phosphotransferase Type I and II and streptomycin phosphotransferase, agar dilution, pH 7.2, read-out: Minimum Inhibitory Concentration
[34] = test system: Proteus morganii KY 4298; test: Agar dilution MIC, pH 7.2 (Table 2); type: cell-based; details: Morganella morganii, KY4298; P. morganii KY 4298; agar dilution, pH 7.2; read-out: Minimum Inhibitory Concentration

Structure (SMILES)	MIC [1] [µg/mL]	MIC [2] [µg/mL]	MIC [3] [µg/mL]	MIC [4] [µg/mL]	MIC [5] [µg/mL]	MIC [6] [µg/mL]	MIC [7] [µg/mL]	MIC [8] [µg/mL]	MIC [9] [µg/mL]	MIC [10] [µg/mL]	MIC [11] [µg/mL]	MIC [12] [µg/mL]	MIC [13] [µg/mL]	MIC [14] [µg/mL]	MIC [15] [µg/mL]	MIC [16] [µg/mL]	MIC [17] [µg/mL]	MIC [18] [µg/mL]	MIC [20] [µg/mL]	MIC [21] [µg/mL]	also measured
CNC[C@@H]1CC[C@@H](N)[C@@H](O[C@H]2[C@H](O)[C@@H](O[C@H]3OC[C@](C)(O)[C@H](NC)[C@H]3O)[C@H](NC(=O)[C@@H](O)CCN)C[C@@H]2N)O1 [Compound IV, 1-N-[L-(-)-α-hydroxy-γ-aminobutyryl] XK-62-2]	0.1 (≈ 0.177 µM)	0.016 (≈ 0.0283 µM)	3.12 (≈ 5.53 µM)	0.4 (≈ 0.708 µM)	0.004 (≈ 0.00708 µM)	0.008 (≈ 0.0142 µM)	3.12 (≈ 5.53 µM)	0.008 (≈ 0.0142 µM)	3.12 (≈ 5.53 µM)	0.2 (≈ 0.354 µM)	1.56 (≈ 2.76 µM)	2.08 (≈ 3.68 µM)	3.12 (≈ 5.53 µM)	3.12 (≈ 5.53 µM)	0.1 (≈ 0.177 µM)	0.1 (≈ 0.177 µM)	0.2 (≈ 0.354 µM)	0.2 (≈ 0.354 µM)	12.5 (≈ 22.1 µM)	0.004 (≈ 0.00708 µM)	antibacterial activity in protection tests ([19]; infections induced by resistant bacteria, versus gentamicin antibiotics and XK-62-2): much higher antibacterial activity than the gentamicin antibiotics and XK-62-2; retention of the α-hydroxy-γ-aminobutyryl group in vivo ([19]; protection tests, in vivo): maintain the α-hydroxy-γ-aminobutyryl group in vivo; MIC [22]: 0.4 µg/mL (≈ 0.708 µM); MIC [23]: 0.065 µg/mL (≈ 0.115 µM); MIC [24]: 0.4 µg/mL (≈ 0.708 µM); LD50 [25]: 250 mg/kg; antibacterial activity (in words) ([26]; E. coli KY 8327, from Table 1): strong anti-bacterial activity; MIC [26]: 0.016 µg/mL (≈ 0.0283 µM); antibacterial activity (in words) ([27]; E. coli KY 8348, from Table 1): strong anti-bacterial activity; MIC [27]: 0.004 µg/mL (≈ 0.00708 µM); antibacterial activity (in words) [28]: strong anti-bacterial activity; MIC [29]: 0.1 µg/mL (≈ 0.177 µM); MIC [30]: 0.2 µg/mL (≈ 0.354 µM)
CNC[C@@H]1CC[C@@H](N)[C@@H](O[C@H]2[C@H](O)[C@@H](O[C@H]3OC[C@](C)(O)[C@H](NC)[C@H]3O)[C@H](N)C[C@@H]2N)O1 [XK-62-2]	< 0.05	0.088 (≈ 0.19 µM)	0.78 (≈ 1.68 µM)	0.4 (≈ 0.863 µM)	0.016 (≈ 0.0345 µM)	0.004 (≈ 0.00863 µM)	0.78 (≈ 1.68 µM)	0.008 (≈ 0.0173 µM)	3.12 (≈ 6.73 µM)	0.1 (≈ 0.216 µM)	0.78 (≈ 1.68 µM)	0.52 (≈ 1.12 µM)	100 (≈ 216 µM)	1.56 (≈ 3.37 µM)	12.5 (≈ 27 µM)	0.1 (≈ 0.216 µM)	0.4 (≈ 0.863 µM)	12.5 (≈ 27 µM)	100 (≈ 216 µM)	0.044 (≈ 0.0949 µM)	MIC [31]: 0.033 µg/mL (≈ 0.0712 µM); MIC [32]: 0.4 µg/mL (≈ 0.863 µM); MIC [33]: 0.78 µg/mL (≈ 1.68 µM); MIC [22]: 0.4 µg/mL (≈ 0.863 µM); MIC [34]: 0.4 µg/mL (≈ 0.863 µM); MIC [23]: 0.033 µg/mL (≈ 0.0712 µM); MIC [24]: 0.4 µg/mL (≈ 0.863 µM); LD50 [25]: 93 mg/kg; MIC [26]: 1.04 µg/mL (≈ 2.24 µM); MIC [27]: 1.04 µg/mL (≈ 2.24 µM); MIC [29]: < 0.05 µg/mL; MIC [30]: 3.12 µg/mL (≈ 6.73 µM)
